From PMC11928584, “H105A peptide eye drops promote photoreceptor survival in murine and human models of retinal degeneration” (Communications Medicine, 2025)
Where a SMILES comes first, the peptide text is derived from it.

Legend:
Assay type in all cases: in vivo, mouse
[1] = system: retinal function of rd10 mice; test: Electroretinogram (scotopic a- and b-wave), rd10 mice; settings: daily eye drops of labeled peptide P15-P20, ERG P21, n=3
Experimental: Electroretinogram (ERG) for rd10 and rd10/Serpinf1^-/- mice were dark-adapted overnight and recorded in both eyes of each animal using an Espion E2 system with ColorDome (Diagnosys LLC) with a heated surface. Briefly, pupils were dilated with 1% tropicamide (Akorn, NDC: 17478-101-12) for 10 min and mice were anesthetized with intraperitoneal injection of Zetamine™ (Ketamine hydrochloride injection, USP; VetOne, NDC 13985-584-10) at 92.5 mg/kg, and AnaSed® (xylazine injection, Akorn Pharmaceuticals, NDC 59399-110-20) at 5.5 mg/kg. Mice were placed on the heated surface and electrodes were placed in the mouth and a subdermal platinum needle electrode was placed in the back of the mouse to serve as ground. Responses were elicited with increasing light impulses with intensity from 0.0001 to 10 cd-seconds per meter squared (cd.s/m^2). Amplitudes for a-wave were measured from stimulus to the trough of the a-wave and b-wave amplitudes were measured from a-wave to b-wave trough or peak. The values from the a and b waves for both eyes were exported to Microsoft Excel to obtained amplitude values for each mouse.
Fig. 5 Effect of daily eyedrops of PEDF peptides on ERG a-wave and b-wave retinal function. a Illustration of the experimental timeline of peptide application. RE and LE refer to the right and left eyes, respectively. Representative ERG waveforms for rd10 (b) and rd10/Serpinf1^-/- (c) mice at P21 in response to a light flash (1 cd.s/m²). Amplitude (y-axis) is plotted against time in milliseconds (ms, x-axis). Treatments are indicated to the right of each plot and are color coded, with control wild type C57BL/6 J mice without peptide treatment shown in blue. A-wave and b-wave are indicated by arrows. Photoreceptor a-wave amplitudes. Averages of photoreceptor a-wave amplitudes for rd10 (d) and rd10/Serpinf1^-/- (e) mice as a function of light intensity (cd/s.m², x-axis). Responses of animals treated with 17-mer are shown in green, H105A in black, and vehicle (HBSS) in red. Wildtype responses are shown in blue. Bipolar cell b-wave amplitudes. Averages of bipolar cell b-wave amplitudes for rd10 (f) and rd10/Serpinf1^-/- (g) mice as a function of light intensity (cd/s.m², x-axis), with treatments as indicated in panels. The number of mice evaluated for the data shown in Panels d-g was five (n = 5) for each rd10, rd10/Serpinf1^-/- and wild type. Each data point represents the average ± SD of each genotype, analyzed by ANOVA with Dunnett’s multiple comparisons. Statistical significance between H105A and vehicle is indicated by ##p ≤ 0.01, ###p ≤ 0.001, ####p ≤ 0.0001, and between H105A and 17-mer by **p ≤ 0.01, ***p ≤ 0.001, ****p ≤ 0.0001.

[2] = system: photoreceptors of rd10 mice; test: PSVue-550 fluorescence fundoscopy of photoreceptor cell death (PS externalization); settings: daily eye drops 5 µl of 1 mg/ml from P15, PSVue-550 fundoscopy P21
Description: (§1) Fluorescence fundoscopy with a cell death probe was chosen as a simple method for monitoring photoreceptor cell death in alive animals. A fluorescent probe, bis (zinc^2+-dipicolylamine)-550, (PSVue®-550) (Molecular Targeting Technologies Inc, cat. P-1005) was reconstituted in Hanks’ Balanced Salt Solution (HBSS, Quality Biological, cat. 114-062-101) according to the manufacturer’s instructions[28],[36]. This probe is suitable for in vivo use to specifically and transiently label dying photoreceptors, such as in living rats with retinal degeneration the Royal College of Surgeons rat model, in a non-invasive and non-toxic method without the need of intraocular injection. Briefly, a stock of 1 mM solution of PSVue®-550 was stored in the dark at 4 °C and used within 14 days directly as eye drop. After 3-4 h of light onset each mouse received eye drops of 5–10 μl of 1 mM PSVue®-550 in the left eye and HBSS in the right eye as control. The eye drop volume was chosen such that the eye cavity was filled without spillage outside the eye, and it was modified depending on eye size. […] To obtain in vivo retinal images of fundi, at 24 h after the probe was administered, the mice were anesthetized, and pupils were dilated with 1% tropicamide for 5 min and kept hydrated with GenTeal. Fluorescence was imaged using a retinal imaging microscope (Micron III, Phoenix Research Labs) using an FF02- 475/50 nm excitation filter (Semrock, Inc.). We observed some variability in optic nerve (ON) fluorescence that could not be readily explained, so the optic nerve was excluded from analyses in all samples.
(§2) To determine the natural history of photoreceptor death of rd10 and rd10/Serpinf1^-/- mice, we assessed photoreceptor cell death in live mice using the fluorescent probe termed PSVue® 550 to monitor PS externalization by fluorescence fundoscopy (Supplementary Fig. 2). Given the reports about the retinas of rd10 mice starting to show histological changes at P16, and with a peak in the number of TUNEL+ nuclei in the ONL at P17-18[13], we monitored PS externalization in photoreceptors of these mice undergoing degeneration before death onset. Eye drops of 1 mM PSVue® 550 solution in HBSS were administered to left eyes and HBSS (vehicle) to their contralateral right eyes of each mouse at ages P16, P20, P22 or P24. PS externalization was determined by fluorescence fundoscopy 24 h post-administration. PSVue labeling of phosphatidylserine (PS) externalization associated with photoreceptor cell death in the rd10 retina (Supplementary Figs. 2, 3).
(§3) Fig. 2 Effect of PEDF peptide eye drops on protection against photoreceptor cell death in rd10 and rd10/Serpinf1^-/- mice. a Illustration of the experimental timeline of peptide application. Eye drops containing 5 µl of 17-mer, H105A, or R99A peptides in HBSS were administered daily to eyes of rd10 and rd10/Serpinf1^-/- mice from P15 to P20. Vehicle (HBSS) was applied in contralateral eyes. At P20, PSVue® was applied via eye drops, and fluorescence fundoscopy was conducted at P21 to assess photoreceptor cell death. RE and LE refer to the right and left eyes, respectively. b Fluorescence fundoscopy micrographs. Representative fluorescence fundoscopy images of retinas from mice treated as in Panel a with eyedrops of 1 mg/ml of each peptide. Quantification of fluorescence intensity was performed using ImageJ, with average intensity values corrected for background fluorescence from eyes that had not received PSVue or peptides. Each line represents data from one animal comparing treated and contralateral eyes, with five eyes (n = 5) per condition. Statistical significance was determined by paired t-test (****p ≤ 0.0001, and ns > 0.05). Scale bar = 0.5 mm. c Dose response of peptide eye drops. Representative fluorescence fundoscopy micrographs showing retinas treated with varying concentrations of 17-mer and H105A peptides (0.0 mg/ml to 1.0 mg/ml) in rd10 and rd10/Serpinf1^-/- mice. […]

[3] = system: photoreceptors of rd10/Serpinf1-/- mice; test: as above; settings: daily eye drops 5 µl of 1 mg/ml from P15, PSVue-550 fundoscopy P21
Description: as §1, §2, §3

| Molecule | ERG a-wave and b-wave retinal function [1] | PS externalization / photoreceptor cell death vs vehicle [2] | PS externalization / photoreceptor cell death vs vehicle [3] |
| --- | --- | --- | --- |
| CC[C@H](C)[C@H](NC(=O)[C@H](CC(=O)O)NC(=O)[C@@H]1CCCN1C(=O)[C@H](CO)NC(=O)[C@H](CO)NC(=O)[C@@H](NC(=O)[C@H](CC(C)C)NC(=O)[C@H](CC(=O)O)NC(=O)[C@H](Cc1ccc(O)cc1)NC(=O)[C@H](Cc1ccc(O)cc1)NC(=O)[C@H](CC(C)C)NC(=O)[C@H](C)NC(=O)[C@H](CCCNC(=N)N)NC(=O)[C@H](C)NC(=O)[C@@H](NC(=O)[C@@H](NC(=O)[C@H](CO)NC(=O)[C@H](CCC(=O)O)NC(=O)[C@@H](NC(=O)[C@H](CCCNC(=N)N)NC(=O)[C@H](CCC(N)=O)NC(=O)[C@H](CCC(=O)O)NC(=O)[C@H](C)NC(=O)CNC(=O)[C@H](CC(C)C)NC(=O)[C@@H](N)CO)[C@@H](C)O)[C@@H](C)CC)[C@@H](C)CC)[C@@H](C)CC)C(=O)N[C@@H](Cc1c[nH]cn1)C(=O)NCC(=O)N[C@H](C(=O)O)[C@@H](C)O [29-mer[H105A]] (H-SLGAEQRTESIIARALYYDLISSPDIHGT-OH) | – | no reduction in photoreceptor cell death | no reduction in photoreceptor cell death |
| AlexaFl-QRTESIIHRALYYDLIS-COOH [AlexaFl-488-17-mer, 17-mer peptide conjugated to Alexa Fluor 488 dye] | improved retinal function | – | – |
| CC[C@H](C)[C@H](NC(=O)[C@H](CC(=O)O)NC(=O)[C@@H]1CCCN1C(=O)[C@H](CO)NC(=O)[C@H](CO)NC(=O)[C@@H](NC(=O)[C@H](CC(C)C)NC(=O)[C@H](CC(=O)O)NC(=O)[C@H](Cc1ccc(O)cc1)NC(=O)[C@H](Cc1ccc(O)cc1)NC(=O)[C@H](CC(C)C)NC(=O)[C@H](C)NC(=O)[C@H](CCCNC(=N)N)NC(=O)[C@H](Cc1c[nH]cn1)NC(=O)[C@@H](NC(=O)[C@@H](NC(=O)[C@H](CO)NC(=O)[C@H](CCC(=O)O)NC(=O)[C@@H](NC(=O)[C@H](CCCNC(=N)N)NC(=O)[C@H](CCC(N)=O)NC(=O)[C@H](CCC(=O)O)NC(=O)[C@H](C)NC(=O)CNC(=O)[C@H](CC(C)C)NC(=O)[C@@H](N)CO)[C@@H](C)O)[C@@H](C)CC)[C@@H](C)CC)[C@@H](C)CC)C(=O)N[C@@H](Cc1c[nH]cn1)C(=O)NCC(=O)N[C@H](C(=O)O)[C@@H](C)O [29-mer] (H-SLGAEQRTESIIHRALYYDLISSPDIHGT-OH) | – | no reduction in photoreceptor cell death | no reduction in photoreceptor cell death |

Now from value to molecule, other results behind:

| ERG a-wave and b-wave retinal function [1] | Molecule | PS externalization / photoreceptor cell death vs vehicle [2] | PS externalization / photoreceptor cell death vs vehicle [3] |
| --- | --- | --- | --- |
| showed no improvement | AlexaFl-QATESIIHRALYYDLIS-COOH [AlexaFl-488-R99A, R99A peptide conjugated to Alexa Fluor 488 dye] | – | – |
| improved retinal function | AlexaFl-QRTESIIARALYYDLIS-COOH [AlexaFl-488-H105A, H105A peptide conjugated to Alexa Fluor 488 dye] | – | – |
